Data on 22 compounds can be found in patent US20230010299A1, “HETEROCYCLIC TRPML1 AGONISTS” (LIBRA THERAPEUTICS, INC., priority 2019, published 2023).

In the test the target is T1, TRPML1 (Homo sapiens, UniProt Q9GZU1).
T1 construct: expressed in transfected cells
Nature of the test: Cellular TRPML1 assay (FLIPR TETRA, GCaMP6f calcium read-out). Format: cell-based. Particulars: HEK T-REx/GCaMP6f/TRPML1 cells; Ca2+ response over 300 s, normalized to ML-SA1 50 μM; Ca2+ free or Optimem condition not given; read-out: Ec50 (Activity of TRPML1 agonists). As for the experimental part: Buffers and reagents • PBS (D-PBS without calcium and magnesium; EuroClone) • Trypsin (Trypsin 0.05%, EDTA 0.02% in PBS; EuroClone) • DMSO (Sigma) • Ca^2+ free Tyrode's buffer: in-house solution (130 mM NaCl, 5 mM KCl, 1 mM MgCl2, 5 mM NaHCO3, 20 mM HEPES in water at pH 7.4; sterile filtered). • Opti-MEM (Gibco) • Agonist: ML-SA1 (Sigma); stock: 60 mM in DMSO, stored at −20° C. • Blocker: ML-SI3 (in house synthesis); stock: 20 mM in DMSO, stored at −20° C.
The final clone for the TRPML1 assay is HEK T-REx/GCaMP6f/TRPML1.
GCaMP6f is a genetically encoded calcium indicator that is stably expressed in this cell line and used as a fluorescent read-out.
Experiments are performed in 384 MTP format. Cells are seeded at 15000 cells/well either in 25 μl/well of growth medium or in 20 μl/well of Optimem+0.5% FBS without selection antibiotics. Twenty-four hours later, cells are assayed for the response to various compounds using the Ca^2+ sensitive GCaMP6f protein stably expressed in the cells as readout.
The experiment is performed in a 384-well format according to the following procedures for either Ca^2+ free or Optimem conditions: • Ca^2+ free condition (in absence of extracellular Ca^2+): • 24 h after seeding, pre-incubate the cells at room temperature for about 10′. • Then remove the culture medium and replace it with 20 μL of Ca^2+ free Tyrode's buffer. • Start the experiment at the FLIPR^TETRA by injecting 10 μL/w of 3× concentrated test compounds and controls in Ca^2+ free Tyrode's buffer. Monitor the kinetic response over a period of 300 seconds. • Final DMSO concentration: 0.5% • Optimem condition (in presence of extracellular Ca^2+): • 24 h after seeding, pre-incubate the cells at room temperature for about 10′. • Start the experiment at the FLIPR^TETRA by injecting 10 μL/w of 3× concentrated test compounds and controls in Ca^2+ free Tyrode's buffer. Monitor the kinetic response over a period of 300 seconds. • Final DMSO concentration: 0.5%
Data from FLIPR^TETRA measurements are analyzed with the Genedata Screener® software.
Stimulator controls (Col 2): injection of ML-SA1 EC100 (50 μM) in alternated wells positions
Neutral controls (Col 2): injection of 0 mM Ca^2+ free Tyrode's buffer in alternated wells positions.
Test wells (Col 3-22): test compounds dose response curve from either 100 μM with 1:2 dilution steps or from 50 μM with 1:3.16 dilution steps.

The EC50 is the concentration at which the effect is half-maximal.

T1 sequence (Q9GZU1 whole entry): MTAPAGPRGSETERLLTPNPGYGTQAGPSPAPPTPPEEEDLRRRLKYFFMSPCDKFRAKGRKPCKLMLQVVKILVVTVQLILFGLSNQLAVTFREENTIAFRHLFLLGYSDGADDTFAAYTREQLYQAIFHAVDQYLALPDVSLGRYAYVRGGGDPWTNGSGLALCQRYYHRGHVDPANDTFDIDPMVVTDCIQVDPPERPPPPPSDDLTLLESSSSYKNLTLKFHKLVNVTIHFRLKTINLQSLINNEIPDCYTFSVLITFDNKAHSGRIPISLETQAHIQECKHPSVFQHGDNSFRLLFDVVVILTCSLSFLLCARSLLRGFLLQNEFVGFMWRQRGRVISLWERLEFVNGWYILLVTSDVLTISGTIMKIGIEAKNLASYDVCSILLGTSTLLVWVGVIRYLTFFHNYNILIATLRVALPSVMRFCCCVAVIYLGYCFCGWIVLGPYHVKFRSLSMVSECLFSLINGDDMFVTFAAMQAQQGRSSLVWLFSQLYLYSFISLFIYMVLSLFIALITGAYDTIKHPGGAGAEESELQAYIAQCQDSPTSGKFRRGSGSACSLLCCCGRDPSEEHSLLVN

Regarding `CN(C)S(=O)(=O)c1ccc(S(=O)(=O)Nc2ccccc2N2CCC(Oc3ccncc3)CC2)cc1` [Example 106, N1,N1-dimethyl-N4-(2-(4-(pyridin-4-yloxy)piperidin-1-yl)phenyl)benzene-1,4-disulfonamide], the EC50 amounted to 8.6 µM.

For `CN(C)S(=O)(=O)c1ccc(S(=O)(=O)NC2CCCCC2N2CCCCC2)cc1` (stereo not shown) [Example 22, N1,N1-dimethyl-N4-[2-(piperidin-1-yl)cyclohexyl]benzene-1,4-disulfonamide], the EC50 is 98 µM.

In the case of `CN(C)S(=O)(=O)c1ccc(S(=O)(=O)Nc2ccccc2N2CCCOCC2)cc1` [Example 43, N1-(2-(l,4-oxazepan-4-yl)phenyl)-N4,N4-dimethylbenzene-1,4-disulfonamide], the EC50 came out at 7 µM.

For `CN(C)S(=O)(=O)c1ccc(S(=O)(=O)Nc2ccccc2N2CCc3ccccc3C2)cc1` [Example 9, N1,N1-dimethyl-N4-[2-(1,2,3,4-tetrahydroisoquinolin-2-yl)phenyl]benzene-1,4-disulfonamide], the EC50 worked out at 47.4 µM.

Turning to `CN(C)S(=O)(=O)c1ccc(S(=O)(=O)Nc2ccccc2N2CCCC(c3ccccc3)C2)cc1` (stereo not shown) [Example 35, N1,N1-dimethyl-N4-[2-(3-phenylpiperidin-1-yl)phenyl]benzene-1,4-disulfonamide], the 50% effective concentration (EC50) is 7.7 µM.

Regarding `O=S(=O)(Nc1ccccc1N1CCCCC1)c1cc2ccccc2s1` [Example 1, N-[2-(piperidin-1-yl)phenyl]-1-benzothiophene-2-sulfonamide], the EC50 was 91.1 µM.

For `CN(C)S(=O)(=O)c1ccc(CC(=O)Nc2ccccc2N2CCCC2)cc1` [Example 7, 2-[4-(dimethylsulfamoyl)phenyl]-N-[2-(pyrrolidin-1-yl)phenyl]acetamide], the EC50 was 85.4 µM.

As for `Cc1nc(C)c(S(=O)(=O)Nc2ccccc2N2CCN(C(=O)OC(C)(C)C)CC2)s1` [Example 56, tert-butyl 4-(2-((2,4-dimethylthiazole)-5-sulfonamido)phenyl)piperazine-1-carboxylate], the EC50 was determined as 3.6 µM.

Take `O=S(=O)(Nc1ccccc1N1CCCCC1)c1sccc1C1OCCO1` [Example 11, 3-(1,3-dioxolan-2-yl)-N-[2-(piperidin-1-yl)phenyl]thiophene-2-sulfonamide]: the 50% effective concentration (EC50) came to 33.5 µM.

Consider `Cc1ccc(S(=O)(=O)Nc2ccccc2N2CCN(C(=O)OC(C)(C)C)CC2)cc1C` [Example 51, tert-butyl 4-(2-((3,4-dimethylphenyl)sulfonamido)phenyl)piperazine-1-carboxylate], for which the concentration for a half-maximal effect (EC50) stood at 3 µM.

In the case of `CCc1ccc(S(=O)(=O)Nc2ccccc2N2CCN(C(=O)OC(C)(C)C)CC2)cc1` [Example 18, tert-butyl 4-(2-((4-ethylphenyl)sulfonamido)phenyl)piperazine-1-carboxylate], the EC50 turned out to be 3.5 µM.

`Cc1cccc(S(=O)(=O)Nc2ccccc2N2CCCCC2)c1` [Example 23, 3-methyl-N-[2-(piperidin-1-yl)phenyl]benzene-1-sulfonamide]: the concentration for a half-maximal effect (EC50) came to 15.5 µM.

As for `CN(C)S(=O)(=O)c1ccc(S(=O)(=O)Nc2ccccc2N2CCC(Oc3cccnc3)CC2)cc1` [Example 86, N1,N1-dimethyl-N4-{2-[4-(pyridin-3-yloxy)piperidin-1-yl]phenyl}benzene-1,4-disulfonamide], the EC50 stood at 5.7 µM.

As for `CN(C)S(=O)(=O)c1ccc(S(=O)(=O)Nc2ccccc2CN2CCCCC2)cc1` [Example 30, N1,N1-dimethyl-N4-(2-(piperidin-1-ylmethyl)phenyl)benzene-1,4-disulfonamide], the EC50 stood at 50 µM.

Turning to `CC1Cc2cc(S(=O)(=O)Nc3ccccc3N3CCN(C(=O)OC(C)(C)C)CC3)ccc2O1` (racemic) [Example 92, tert-butyl 4-(2-((2-methyl-2,3-dihydrobenzofuran)-5-sulfonamido)phenyl)piperazine-1-carboxylate], the half-maximal effective concentration (EC50) amounted to 2.4 µM.

Consider `CN(C)S(=O)(=O)c1ccc(S(=O)(=O)Nc2ccccc2N2CCC(F)CC2)cc1` [Example 44, N1-(2-(4-fluoropiperidin-1-yl)phenyl)-N4,N4-dimethylbenzene-1,4-disulfonamide], for which the EC50 was determined as 2.6 µM.

For the compound `CN(C)S(=O)(=O)c1ccc(S(=O)(=O)Nc2ccccc2N2CCOCC2)cc1` [Example 27, N1,N1-dimethyl-N4-[2-(morpholin-4-yl)phenyl]benzene-1,4-disulfonamide], the concentration for a half-maximal effect (EC50) turned out to be 13.3 µM.

With `CN(C)S(=O)(=O)c1ccc(S(=O)(=O)Nc2ccccc2N2CCN(C(=O)c3cccs3)CC2)cc1` [Example 79, N1,N1-dimethyl-N4-{2-[4-(thiophene-2-carbonyl)piperazin-1-yl]phenyl}benzene-1,4-disulfonamide], the half-maximal effective concentration (EC50) turned out to be 8.8 µM.

Regarding `Cc1ccc(S(=O)(=O)Nc2ccccc2N2CCN(C(=O)OC(C)(C)C)CC2)c(C)c1` [Example 50, tert-butyl 4-(2-((2,4-dimethylphenyl)sulfonamido)phenyl)piperazine-1-carboxylate], the EC50 came to 2.2 µM.

On to `Cc1cncc(S(=O)(=O)Nc2ccccc2N2CCN(C(=O)OC(C)(C)C)CC2)c1` [Example 60, tert-butyl 4-(2-((5-methylpyridine)-3-sulfonamido)phenyl)piperazine-carboxylate], for which the half-maximal effective concentration (EC50) came to 7.3 µM.

Turning to `CCC(=O)N1CCN(c2ccccc2NS(=O)(=O)c2ccc(S(=O)(=O)N(C)C)cc2)CC1` [Example 71, N1,N1-dimethyl-N4-[2-(4-propanoylpiperazin-1-yl)phenyl]benzene-1,4-disulfonamide], the half-maximal effective concentration (EC50) came to 17.3 µM.

Regarding `Cc1ccc(S(=O)(=O)Nc2ccccc2N2CCC(Oc3ccccn3)CC2)cn1` [Example 98, 6-methyl-N-(2-(4-(pyridin-2-yloxy)piperidin-1-yl)phenyl)pyridine-3-sulfonamide], the EC50 came to 3.3 µM.
